Source: paper PMC9290507, “Rh^II‐Catalyzed De‐symmetrization of Ethane‐1,2‐dithiol and Propane‐1,3‐dithiol Yields Metallo‐β‐lactamase Inhibitors” (Chemmedchem, 2021)

Columns and labels:
E. coli VIM‐1 (T2544) [1] = test: Intrinsic antimicrobial activity (MIC, CLSI microdilution), E. coli VIM-1; type: cell-based; details: Escherichia coli
Method: (§1) Minimal inhibitory concentrations (MICs) of imipenem monohydrate (Sigma‐Aldrich)±compound 3 a, 3 o, or 3 s against transformed E. coli strains producing NDM‐1 or VIM‐1 were determined according to microdilution method established by Clinical and Laboratory Standards Institute (CLSI).^20 The checkerboard assay was performed to test for synergy in vitro. The microtiter‐plates were set up with serial doubling dilutions of compound 3 a, 3 o, or 3 s (2‐128 mg/L) and imipenem (0.125‐128 mg/L).

E. coli NDM‐1 (T2359) [2] = test: Intrinsic antimicrobial activity (MIC, CLSI microdilution), E. coli NDM-1; type: cell-based; details: for MIC: Escherichia coli; for Intrinsic antimicrobial activity: compound alone, E. coli transformants producing NDM-1 or VIM-1 (Table 2)
Method: as §1

NDM‐1 = target: T1, NDM‐1 (Klebsiella pneumoniae, UniProt C7C422); test: Fluorescence-based enzyme activity assay (Fluorocillin), NDM-1; type: biochemical; details: for Effect of added zinc ions on inhibitory activity (NDM-1): 10 μM compound, additional 100 μM ZnCl2 in assay buffer
T1 construct: made in house
Method: (§2) In order to investigate the structure‐activity relationships of the dithiol library, we measured the inhibitory activity of 3 a–x in a fluorescence‐based enzyme activity assay (Table 1). Two relevant β‐lactamase isoforms, NDM‐1 and VIM‐1 were selected for in vitro assays. The fluorogenic substrate fluorocillin[15] was prepared according to literature and its conversion was monitored as described previously.[6] In general, a linear relationship between the potency of 3 a–x towards both enzymes could be observed, however, inhibitory potency towards VIM‐1 was almost tenfold higher (Figure 3). A very clear preference for the propane‐1,3‐dithiol over ethane‐1,2‐dithiol compounds could be observed from matched molecular pairs.
(§3) Activity assays for MBLs were performed at room temperature in black polystyrol 96well plates (Corning, Corning, NY, USA) using dicefalotinodifluorofluorescein (Fluorocillin) as a substrate. Proteins were diluted in assay buffer (HEPES 50 mM, pH 7.5 containing 0.01 %Triton X‐100), with final protein concentrations of NDM‐1: 3 nM, or VIM‐1: 4 nM. Samples were supplemented with an equimolar amount of ZnCl2. An amount of 1 μL of compounds 3 a–3 x at different concentrations was incubated with 89 μL of enzyme in assay buffer. After an incubation period of 30 min at room temperature, 10 μL of Fluorocillin substrate was added to yield the final assay volume of 100 μL. Final concentration of DMSO was 1 %. The fluorescence emitted by the fluorescent product difluorofluorescein was monitored every 45 s for 30 cycles using a Tecan fluorescent plate reader (Infinite 200; excitation at 495 nm and emission at 525 nm) and was compared with a standard curve. The rate of the enzymatic reaction was obtained by dividing the quantity of the fluorescent product (RFU) by time (min). Negative controls were measured in the absence of enzyme, whereas the positive controls were measured in the presence of enzyme and in the absence of inhibitors. The inhibitory effect of each substance was measured in triplicate in three independent experiments. IC50 values were calculated using data obtained from measurements with at least eight different inhibitor concentrations, applying a sigmoidal dose–response (variable slope with four parameters) equation using GraphPad Prism 5 (GraphPad Software, La Jolla, CA, USA) software. In order to investigate the inhibitory activity of 3 a, 3 o, or 3 s in the presence of a high Zn^2+ concentration, assay buffer containing an additional 100 μM ZnCl2 was used. The assay was performed as described above with NDM‐1 or VIM‐1 and 10 μM of 3 a, 3 o, or 3 s.

VIM‐1 = target: T2, VIM‐1 (Pseudomonas aeruginosa, UniProt A0A0F7KYQ8); test: Fluorescence-based enzyme activity assay (Fluorocillin), VIM-1; type: biochemical; details: for Effect of added zinc ions on inhibitory activity (VIM-1): 10 μM compound, additional 100 μM ZnCl2 in assay buffer
T2 construct: made in house
Method: as §2, §3

E. coli VIM‐1 (T2544) [3] = test: Checkerboard synergy assay with imipenem, E. coli VIM-1; type: cell-based; details: for Imipenem MIC: E. coli VIM-1 (T2544); for Reduction of the MIC of imipenem: VIM-1 producing bacteria, maximal reduction
Method: (§4) To investigate this, the MIC of imipenem or combined with various concentrations of compound 3a, 3o, or 3 s was determined against E. coli transformants producing NDM‐1 or VIM‐1 (Table 3 and 4).
as §1

VIM‐2 = target: T3, VIM‐2 (Escherichia coli, UniProt Q5U7L7); test: Kd determination using isothermal titration calorimetry; type: binding; details: ITC, 250 μM compound into 50 μM VIM-2, 25 °C; for Kd: inset of Figure 6
T3 construct: made in house
Method: The next step was the investigation of the binding thermodynamics of 3 a, 3 o, and 3 s. For these experiments we used a closely related enzyme VIM‐2 which is an isoform of VIM‐1 and can be recombinantly expressed in very high concentrations, suitable tor isothermal titration calorimetry (ITC) experiments (Figure 6).
VIM‐2 expression and purification was published elsewhere.[19] Before the measurement the VIM‐2 protein was dialyzed against 500 times the volume of buffer (50 mM Tris, 500 mM NaCl, 5 % (v/v) glycerol with a pH=8) using a dialysis membrane with a 3.5 kDa MWCO. For the measurements the compounds 3 a, 3 o, or 3 s, respectively, were diluted using the dialyses buffer to a final concentration of 250 μM containing a final DMSO concentration of 1 %. The VIM‐2 protein was diluted to a final concentration of 50 μM, supplemented with 1 % DMSO using the dialysis buffer and pure DMSO. For the control measurements dialysis buffer was supplemented with pure DMSO to a final concentration of 1 %. The measurements were performed using an “Affinity ITC” (TA‐Instruments) in reversed mode, with a stir rate of 75 rpm and a temperature of 25 °C. The VIM‐2 was placed in the cell and the respective compound in the syringe. For blank measurements either the protein or compound dilution were exchanged with buffer containing 1 % DMSO. For the measurements of 3 a and 3 s one time 0.5 μl was injected followed by 50 injections of 2 μl with a spacing of 240 s. 3 o was measured with one injection of 0.5 μl followed by 35 injections of 2 μl with a spacing of 240 s. The data were analyzed using the “NanoAnalyze Data Analysis” software (version 3.10.0; TA‐Instruments).

E. coli NDM‐1 (T2359) [4] = test: Checkerboard synergy assay with imipenem, E. coli NDM-1; type: cell-based; details: for Imipenem MIC: E. coli NDM-1 (T2359); for Reduction of the MIC of imipenem: NDM-1 producing bacteria, maximal reduction
Method: as §4, §1

T1 sequence (C7C422 29-270, looked up, species assumed): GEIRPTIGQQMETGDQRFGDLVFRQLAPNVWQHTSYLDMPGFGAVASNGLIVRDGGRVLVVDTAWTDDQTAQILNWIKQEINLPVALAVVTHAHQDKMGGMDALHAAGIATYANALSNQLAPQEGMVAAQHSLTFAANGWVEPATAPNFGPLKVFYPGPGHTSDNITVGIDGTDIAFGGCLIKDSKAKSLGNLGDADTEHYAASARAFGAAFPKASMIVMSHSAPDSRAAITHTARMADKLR

Row | Structure (SMILES) | MIC (E. coli VIM‐1 (T2544) [1]) | MIC (E. coli NDM‐1 (T2359) [2]) | Intrinsic antimicrobial activity (E. coli NDM‐1 (T2359) [2]) | IC50 (NDM‐1) | Effect of added zinc ions on inhibitory activity (NDM-1) (NDM‐1) | IC50 (VIM‐1) | Effect of added zinc ions on inhibitory activity (VIM-1) (VIM‐1) | Imipenem MIC (E. coli VIM‐1 (T2544) [3]; +2 μg/ml compound) | Imipenem MIC (E. coli VIM‐1 (T2544) [3]; +4 μg/ml compound) | Imipenem MIC (E. coli VIM‐1 (T2544) [3]; +8 μg/ml compound) | Imipenem MIC (E. coli VIM‐1 (T2544) [3]; +16 μg/ml compound) | Imipenem MIC (E. coli VIM‐1 (T2544) [3]; +32 μg/ml compound) | Imipenem MIC (E. coli VIM‐1 (T2544) [3]; +64 μg/ml compound) | Imipenem MIC (E. coli VIM‐1 (T2544) [3]; +128 μg/ml compound) | Reduction of the MIC of imipenem (E. coli VIM‐1 (T2544) [3]) | ΔH (VIM‐2) | Kd (VIM‐2) | Imipenem MIC (E. coli NDM‐1 (T2359) [4]; +2 μg/ml compound) | Imipenem MIC (E. coli NDM‐1 (T2359) [4]; +4 μg/ml compound) | Imipenem MIC (E. coli NDM‐1 (T2359) [4]; +8 μg/ml compound) | also measured
1 | O=C1C(SCCCS)CCN1c1ccccc1 (centres unmarked) [3 o, 3‐((3‐Mercaptopropyl)thio)‐1‐phenylpyrrolidin‐2‐one] | > 512 µg/mL | > 512 µg/mL | no intrinsic antimicrobial activity | 300 ± 40 nM | does not impair the inhibitory activity | 20 nM | does not impair the inhibitory activity | 16 µg/mL | 16 µg/mL | 16 µg/mL | 16 µg/mL | 8 µg/mL | 2 µg/mL | 1 µg/mL | ≤ 32 fold | -11.7 kcal/mol | 534 nM | 128 µg/mL | 128 µg/mL | 128 µg/mL | Imipenem MIC (E. coli NDM‐1 (T2359) [4]; +16 μg/ml compound): 128 µg/mL; Imipenem MIC (E. coli NDM‐1 (T2359) [4]; +32 μg/ml compound): 32 µg/mL; Imipenem MIC (E. coli NDM‐1 (T2359) [4]; +64 μg/ml compound): 32 µg/mL; Imipenem MIC (E. coli NDM‐1 (T2359) [4]; +128 μg/ml compound): 16 µg/mL; Reduction of the MIC of imipenem (E. coli NDM‐1 (T2359) [4]): up to 8 fold
2 | O=C1C(SCCCS)CCN1c1nccs1 (centres unmarked) [3 s, 3‐((3‐Mercaptopropyl)thio)‐1‐(thiazol‐2‐yl)pyrrolidin‐2‐one] | > 512 µg/mL | > 512 µg/mL | no intrinsic antimicrobial activity | 390 ± 50 nM | does not impair the inhibitory activity | 40 ± 10 nM | does not impair the inhibitory activity | 32 µg/mL | 16 µg/mL | 16 µg/mL | 16 µg/mL | 8 µg/mL | 4 µg/mL | 2 µg/mL | ≤ 32 fold | -6.45 kcal/mol | 166 nM | 128 µg/mL | 128 µg/mL | 64 µg/mL | Imipenem MIC (E. coli NDM‐1 (T2359) [4]; +16 μg/ml compound): 64 µg/mL; Imipenem MIC (E. coli NDM‐1 (T2359) [4]; +32 μg/ml compound): 64 µg/mL; Imipenem MIC (E. coli NDM‐1 (T2359) [4]; +64 μg/ml compound): 32 µg/mL; Imipenem MIC (E. coli NDM‐1 (T2359) [4]; +128 μg/ml compound): 16 µg/mL; Reduction of the MIC of imipenem (E. coli NDM‐1 (T2359) [4]): up to 8 fold
